Laboratory results from US10772866B2 (UNIVERSITY-INDUSTRY COOPERATION GROUP OF KYUNG HEE …, priority 2013, dated 2020).

Tested on: CA1 neuron region of hippocampal tissue
Assay: Crystal violet staining of CA1 neuron region of hippocampal tissue after transient global ischemia
Type: in vivo, CD1 mice
Conditions: mice after transient global ischemia; fluoxetine, vitamin C alone or together at trace amount; vs normal and negative control groups
From the text: Eight-week old adult male CD1 mice with a weight of 33 g to 37 g were induced to be anesthetized by injecting with 2% isoflurane under an air condition, in which nitrous oxide and oxygen were in a 70:30 ratio, and the mice were induced to have transient global ischemia according to the previous disclosure while the mice were maintained in the anesthetized state with 1% isoflurane (Kim, D. H. et. al, 2009. Food Chem. Toxicol. 47, 1473-1479.). The thus-prepared mice with transient global ischemia put into cages (4 mice/cage) were given ad libitum access to water and foods, and bred in an environment of a constant temperature (23±1° C.) and continuous humidity (60±10%) under a 12 hour light/dark cycle.
Specifically, the brains obtained and stored by performing in the same manner as in <Example 6> were cut into 30 μm coronal plane sections, placed on gelatin-coated slides, stained with crystal violet, and dehydrated by adding 70%, 80%, 90%, and 100% alcohol in this order. Upon dehydration, xylene was added thereto, covered with coverslips, and the CA1 neuron region of hippocampal tissue was observed.

For `CNCCC(Oc1ccc(C(F)(F)F)cc1)c1ccccc1` (centres unmarked) [fluoxetine], the “recovery of hippocampal tissue injury (CA1 neuron region, preserved cells, FIGS. 7 and 8)” value was “a recovery similar to that of the negative control group”.

In the case of `O=C1O[C@H]([C@@H](O)CO)C(O)=C1O` [vitamin C, ascorbic acid], the “recovery of hippocampal tissue injury (CA1 neuron region, preserved cells, FIGS. 7 and 8)” value is reported as “a recovery similar to that of the negative control group”.
